The results in this text go back to US20070275954A1 (published 2007).

SMILES strings stand for the structures.

As a reminder, the melting point is the temperature of the solid-liquid transition. `CNC1=Nc2ncccc2C(c2cnc[nH]2)=NC1c1cccs1` (stereo not shown) registered a melting point of 280 to 290 °C. Compound `Cn1ccnc1C1=NC(c2cccs2)C(N2CCC2)=Nc2ncccc21` (stereo not shown) gave a melting point of 215 to 217 °C. In the case of `CNC1=Nc2ncccc2C(c2ccc[nH]2)=NC1c1cccs1` (stereo not shown) it was 165 to 170 °C; in that of `CNC1=Nc2ncccc2C(c2cn[nH]c2)=NC1c1cccs1` (stereo not shown), 187 to 194 °C; in that of `CNC1=Nc2ncccc2C(c2cc[nH]n2)=NC1c1cccs1` (stereo not shown), 269 to 272 °C. In the case of `CNC1=Nc2ncccc2C(c2ccoc2)=NC1c1cccs1` (stereo not shown) it was 110 to 114 °C; in that of `c1csc(C2N=C(c3cc[nH]c3)c3cccnc3N=C2N2CCC2)c1` (stereo not shown), 168 to 172 °C. In turn, `CNC1=Nc2ncccc2C(c2ccsc2)=NC1c1cccs1` (stereo not shown) had a melting point of 85 to 88 °C.

For `c1csc(C2N=C(c3ccsc3)c3cccnc3N=C2N2CCC2)c1` (stereo not shown), the melting point was in the range of 90 to 95 °C. The same measure for `c1csc(C2N=C(c3ccsc3)c3cccnc3N=C2NC2CC2)c1` (stereo not shown): 90 to 96 °C.
